# In patent US7414173B1, “Isolated nucleic acid molecules encoding orally active androctonus amoreuxi pesticidal biopeptides” (E.I. du Pont de Nemours and Company, priority 2002, dated 2008):
# B1: Ts7: polypeptide set forth in SEQ ID NO:22 and 24, identified from a Centruroides vittatus telsons cDNA library (protein)
# chain 1: MKFFLIVSLAIMSCFMEMKEVYAGTKGNFPVDFQGIFYECIVYNRCERDCKLHGSSYGYCYAGVCYCEGLADEDKYFLGM
# chain 2: GTKGNFPVDFQGIFYECIVYNRCERDCKLHGSSYGYCYAGVCYCEGLADEDKYFLGM
# Columns and labels:
# [1] = system: embryonic neuronal cultures of the American cockroach Periplaneta americana; experiment: Fluorescence imaging ratiometric assay; format: cell-based; settings: Fluo-4 AM loaded neuronal cells
# Source text: Embryonic neuronal cultures of the American cockroach Periplaneta americana were established following the method of Beadle and Lees (See Beadle D. J. and Lees G., Chapter 5 in Cell Culture Approaches to Invertebrate Neuroscience, Beadle, D. J., Lees, G. and Kater, S. B. (eds.) Academic Press, New York 1988) with minor modification. Briefly, 24-day old oothecae were collected, surface-sterilized and cut open one third below the dorsal midline. The heads were then removed and placed in Schneider's Drosophila medium. Using fine forceps 32 brains were individually removed and placed in a small glass vial containing 790 μl of ‘5+4’ medium. […]
# Cells were rinsed in standard physiological saline having the following composition (mM): NaCl 190; CaCl2 9; KCl 3.1; probenicid 1; Tris buffer 10; pH 7.2. […] Individual wells from the 96-well plate were sequentially excited with light at 495 nm and the emitted fluorescence at 530 nm detected using a Hamamatsu ORCA ER digital camera.
# Acquisition control, image processing and image analysis were conducted using Universal Imaging Corporation's MetaMorph™ imaging software. […] Individual cells were separated and identified based on meeting designated morphometric criteria for total size and shape as previously determined experimentally for this cell type. […]
# [2] = system: corn plant hopper Perigrinus maidis; experiment: Screening of Androctonus amoreuxi venom fractions for Homopteran activity; format: in vivo; settings: HPLC fractions of venom
# Method: This assay can be used for a variety of homopterans including, but not limited to, Myzus persicae and Perigrinus maidis. The assay involves trapping the sample between two layers of maximally stretched parafilm which act as a sachet on top of a small vessel containing the insect of choice.
# The assay was prepared as follows: 1 cm diameter polystyrene tubing was cut into 15 mm lengths. One end of the tube was then capped with a fine mesh screen. Five insects were then added to the chamber after which the first layer of parafilm was stretched over the remaining open end. 25 μl of sample (polypeptide in a 5% sucrose solution containing McCormick green food coloring) was then placed on top of the stretched parafilm. A second layer of parafilm was then stretched by hand and placed over the sample. […] The assay tubes were monitored for insect reproduction and death on a 24 hour basis and compared to a 5% sucrose control.
# Initial screening of five minute fractions of the venom from Androctonus amoreuxi indicated activity against the corn plant hopper Perigrinus maidis. […] Sufficient quantities of this purified protein were collected to allow confirmation of activity and to initiate protein sequencing by Edmund degradation as described in Example 2. The mature sequence was determined to be that indicated in SEQ ID NO:20. […]
# [3] = system: Myzus persicae (Green Peach Aphid); experiment: Aphid bioassay on transgenic Arabidopsis thaliana events; format: in vivo; settings: 35S promoter, versus controls
# Source text: cDNAs encoding potential sodium channel neurotoxins were identified from sequence data derived from a cDNA library of Centruroides vittatus telsons. […] Full length genes were PCR amplified with oligonucleotide primers introducing restriction enzyme sites at the 5′ and 3′ ends of the gene. The PCR products were TOPO-cloned into pCR2.1 (Invitrogen Co.) and the sequence was confirmed. The resulting constructs were then cloned into a binary vector between the Cauliflower mosaic virus 35S promoter and the NOS termination signal. The binary vector also contained a selection marker cassette including the Cauliflower mosaic 35S promoter, the BAR gene, and NOS terminator.
# Binary constructs were electroporated into Agrobacterium tumefaciens strain C58. Transformed Agrobacterium cultures were grown in YM media for 2 days at 28° C. to an OD600 of approximately 1.0. Cells were pelleted by centrifugation and resuspended at the original culture volume in 5% sucrose with 0.05% Silwet L-77. The Agrobacterium slurry was sprinkled onto the inflorescences of flowering Arabidopsis thaliana (Landberg) plants using a 10-25 ml pipette. […]
# Bioassays were performed on individual transformation events enclosed within plastic tubes with a fine mesh screen at the top to confine the aphids. […] Plants were scored for total number of adult aphids and nymphs at various intervals post infestation.
Molecule,changes in Fluo-4 fluorescence (intracellular free calcium) [1],activity against the corn plant hopper Perigrinus maidis (Homopteran activity) [2],aphid resistance (total number of adult aphids and nymphs) [3]
Aam1 (ADVPGNYPLDSSDNTYLCAPLGDNPDCIKICQKHGVDYGYCYAFQCWCEFLKDENVKV),changes in fluorescence characteristic of a sodium channel agonist,Homopteran activity was then found to be associated,
B1,,,greater degree of aphid resistance than controls
